Test: Aqueous solubility
Assay type: physicochemical
Conditions: aqueous environments

SMILES: CCOC(=O)N1c2ccc(C(F)(F)F)cc2[C@@H](N(Cc2cc(C(F)(F)F)cc(C(F)(F)F)c2)C(=O)OC)C[C@H]1CC [torceptrapib, [2R,4S]-4-[(3,5-bis-trifluoromethyl-benzyl)-methoxycarbonyl-amino]-2-ethyl-6-trifluoromethyl-3,4-dihydro-2H-quinoline-1-carboxylic acid ethyl ester]
- solubility: < 0.04 µg/mL

Reference: patent publication US7071210B2, “CETP inhibitors in combination with antihypertensive agents and uses thereof” (Pfizer Inc., priority 2002, dated 2006)
